27 compounds from PubChem BioAssay (NCI) can be followed below.

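48-hour exposure; five concentrations; linearly interpolated endpoints. TGI: concentration producing complete growth inhibition.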 Bounds are passed on as bounds.

What all share (test): NCI anticancer screen, dose series, 48 h
Assay [1] relates to UACC-257 melanoma.
Assay [2] deals with SF-268 CNS.
The subject of assay [3] is MOLT-4 leukemia.
The test system of assay [4] is MDA-N.
In assay [5] the test system is LOX IMVI melanoma.
Assay [6] has as its system TK-10 renal.
In assay [7] the test system is PC-3 prostate.
Assay [8] concerns UACC-62 melanoma.
Assay [9] deals with HOP-62 NSCLC.
For assay [10], the system named is HCC-2998 colon.

For the compound `Cc1ccc(C(=O)C2CC3(CCC2(O)c2ccc(C)cc2)CC(=O)Nc2ccccc2C3=O)cc1` (stereo unspecified), the TGI in [1], in assay [2], in assay [3], in assay [4], in [5] and in [6] was more than 100 µM in each case. For the same compound, the TGI in assay [7], in assay [8], in [9] and in assay [10] was more than 100 µM each time.

For the compound `COc1ccc(N=C(SSC(=Nc2ccc(OC)cc2)c2ccc([N+](=O)[O-])o2)c2ccc([N+](=O)[O-])o2)cc1`, the TGI in assay [1] is more than 19.9 µM; in assay [2], 5.4 µM; in assay [3], more than 31.3 µM; in [4], 12.7 µM; in assay [5] it was 5.05 µM; in assay [6] it was 7.55 µM. The TGI in assay [7] is 2.94 µM; in [8], 3.16 µM; in [9], 6.41 µM; in assay [10], 3.26 µM.

For `CCOC(=O)C(NC(=O)c1cccc(Cl)c1)(N1CCN(c2cc3c(cc2F)c(=O)c(C(=O)O)cn3CC)CC1)C(F)(F)F` (stereo unspecified), the TGI stood at 54.9 µM in assay [1]; 35.3 µM in assay [2]; 19.3 µM in [3]; 28.2 µM in assay [4]; 48.7 µM in [5]; 56.6 µM in assay [6]. Further, the TGI in assay [7] was determined as 35.1 µM; in assay [8], 32.4 µM; in assay [9], 36.6 µM; in assay [10] it was 27.5 µM.

Regarding `O=C(Cn1c(-c2ccccc2)cc2ccccc21)N1CCOCC1`, the TGI in assay [1], in assay [2], in assay [3], in [4], in [5] and in assay [6] was more than 100 µM each time. For the same compound, the TGI in [7], in assay [8], in assay [9] and in [10] was more than 100 µM in each case.

For `N/N=C(\N)SCc1ccc(N=C=S)cc1`, the TGI in assay [1], in [2], in assay [3], in assay [4], in assay [5] and in [6] was more than 100 µM each time. Besides, the TGI in assay [7], in [8], in assay [9] and in [10] was more than 100 µM each time.

Consider `COC(=O)c1ccccc1NCc1cc(O)ccc1O`, for which the TGI in assay [1] was 31.2 µM; in assay [2] it was more than 77.4 µM; in assay [3], 76.9 µM; in [4], 31.8 µM; in [5], 32 µM; in assay [6], more than 57.6 µM. In addition, the TGI is 33.6 µM in [7], 45.5 µM in assay [8], more than 71.4 µM in assay [9] and more than 55.7 µM in assay [10].

Consider `CCCSC1=N/C(=C\c2ccco2)C(=O)N1`, for which the TGI in assay [1], in assay [2], in [3], in [4], in assay [5] and in [6] was more than 100 µM in each case. The TGI in [7], in [8], in assay [9] and in assay [10] was more than 100 µM throughout.

For the compound `CCc1nc2cc(F)ccc2[nH]c1=O`, the TGI in assay [1], in [2], in assay [3], in assay [4], in assay [5] and in assay [6] was more than 100 µM each time. In addition, the TGI in assay [7], in assay [8], in assay [9] and in assay [10] was more than 100 µM in each case.

For the compound `CSC(=NCCCN=C(NS(=O)(=O)c1ccc(Cl)cc1)SC)NS(=O)(=O)c1ccc(Cl)cc1`, the TGI in [1] was more than 100 µM; in assay [2], more than 100 µM; in [3], 33.2 µM; in assay [4] it was 61.4 µM; in assay [5], 70.6 µM; in [6], more than 100 µM. In addition, the TGI in assay [7] was 35.2 µM; in [8] it was more than 100 µM; in assay [9] it was more than 100 µM; in assay [10], 83.6 µM.

In the case of `O=C(c1ccccc1)n1c2ccc(Br)cc2c2nc3ccccc3nc21`, the TGI in assay [1], in assay [2], in assay [3], in [4], in assay [5] and in [6] was more than 100 µM throughout. In addition, the TGI in assay [7], in [8], in assay [9] and in [10] was more than 100 µM throughout.

In the case of `CC(C)S1=C2C(=O)CC(C)(C)CC2=Nc2ccccc21` (stereo unspecified), the TGI in assay [1], in assay [2], in [3], in assay [4], in assay [5] and in assay [6] was more than 100 µM in each case. Moreover, the TGI in [7], in assay [8], in assay [9] and in assay [10] was more than 100 µM throughout.

For `O=C1Cc2c(-c3ccccc3)cc(-c3ccc(Cl)cc3)nc2-c2ccccc2N1`, the TGI was more than 58.2 µM in [1]; 20 µM in assay [2]; more than 84.8 µM in [3]; 35.4 µM in assay [4]; 21.9 µM in assay [5]; 14.3 µM in assay [6]. In addition, the TGI is more than 57.7 µM in assay [7], more than 31 µM in assay [8], 12.9 µM in assay [9] and 33.4 µM in assay [10].

Consider `Cc1nnc(N)s/c1=N/O`, for which the TGI in [1], in assay [2], in [3], in assay [4], in assay [5] and in assay [6] was more than 100 µM each time. For the same compound, the TGI in [7], in [8], in assay [9] and in assay [10] was more than 100 µM each time.

For `COc1ccc(OC)c2c(Nc3ccc(S(=O)(=O)O)c4cc(S(=O)(=O)O)cc(S(=O)(=O)O)c34)cc(C)nc12`, the TGI in assay [1], in [2], in assay [3], in assay [4], in [5] and in assay [6] was more than 100 µM in each case. Besides, the TGI in assay [7], in [8], in assay [9] and in [10] was more than 100 µM each time.

As for `O=C1CSC(c2cccc(Oc3ccccc3)c2)N1c1cc(Cl)ccc1Cl` (stereo unspecified), the TGI worked out at 50.1 µM in [1]; 39.5 µM in assay [2]; 57.8 µM in [3]; 35.7 µM in assay [4]; 43.1 µM in [5]; 55.1 µM in assay [6]. Moreover, the TGI was determined as 52.5 µM in assay [7], 31.5 µM in assay [8], 47.1 µM in [9] and 28.6 µM in assay [10].

Take `O=CC12CCCN1CCC2`: the TGI in assay [1], in assay [3], in assay [4], in assay [5], in [6] and in assay [7] was more than 100 µM in each case. Besides, the TGI in [8], in assay [9] and in [10] was more than 100 µM in each case.

Regarding `CCOC(=O)N/N=C(/N)Cc1ccc(Cl)cc1`, the TGI in assay [1], in assay [2], in assay [3], in assay [4], in assay [5] and in assay [6] was more than 100 µM throughout. Further, the TGI in assay [7], in assay [8], in assay [9] and in assay [10] was more than 100 µM in each case.

Turning to `CC(=O)OC/C=C/Cn1nc(Br)c(=O)[nH]c1=O`, the TGI in [1], in [2], in assay [3], in assay [4], in assay [5] and in [6] was more than 100 µM each time. Further, the TGI in assay [7], in [8], in [9] and in [10] was more than 100 µM throughout.

Turning to `C[C@@H](c1ccccc1)N(CC#N)[C@H]1CCC[C@]1(O)/C=C/c1ccc2c(c1)OCO2`, the TGI in assay [1], in [2], in assay [3], in [4], in assay [5] and in assay [6] was more than 25 µM in each case. For the same compound, the TGI is more than 25 µM in assay [7], 7.67 µM in assay [8], more than 25 µM in [9] and more than 25 µM in assay [10].

Turning to `Clc1cc2ncn(C3CCCO3)c2cc1Cl` (stereo unspecified), the TGI in assay [1], in [2], in assay [3], in assay [4], in [5] and in assay [6] was more than 100 µM in each case. The TGI in [7], in assay [8], in assay [9] and in [10] was more than 100 µM each time.

With `CC(=O)Oc1cc(OC(C)=O)c2c(c1C)CC[C@@H]1[C@@H]2CC[C@]2(C)[C@@H](OC(C)=O)CC[C@@H]12`, the TGI worked out at 32 µM in assay [1]; 39.3 µM in [2]; 36.1 µM in assay [3]; 32.9 µM in assay [4]; 34.2 µM in assay [5]; 35 µM in assay [6]. The TGI turned out to be 29 µM in assay [7], 34.7 µM in assay [8], 36 µM in assay [9] and 36.6 µM in assay [10].

Turning to `O=C(C[N+]1(c2ccccc2)CCOCC1)c1ccccc1`, the TGI in [1], in assay [2], in [3], in assay [4], in [5] and in assay [6] was more than 100 µM in each case. Moreover, the TGI in assay [7], in assay [8], in assay [9] and in assay [10] was more than 100 µM in each case.

Consider `COc1cc(O)c2c(=O)c(O)c(-c3ccc(O)c(O)c3)oc2c1`, for which the TGI in assay [1] was 46.1 µM; in assay [2], 73.7 µM; in [3], more than 100 µM; in assay [4], more than 100 µM; in assay [5] it was 31.9 µM; in assay [6], 63.1 µM. Further, the TGI in assay [7] is more than 100 µM; in [8], more than 100 µM; in [9], 63.2 µM; in assay [10], 34.1 µM.

With `CCCCCNC(=O)OC1CCn2c1nc1c2C(=O)C(C)=C(N2CC2)C1=O` (stereo unspecified), the TGI came to 3.22 µM in [1]; 4.84 µM in assay [2]; 43.8 µM in assay [3]; 2.88 µM in assay [4]; 1.07 µM in [5]; 12.5 µM in assay [6]. For the same compound, the TGI came to 2.39 µM in [7], 3.54 µM in assay [8] and 1.37 µM in assay [10].

On to `Cc1cc(NS(=O)(=O)c2ccc(NC(NC(=O)OC(C)C)(C(F)(F)F)C(F)(F)F)cc2)nc(C)n1`, for which the TGI in assay [1], in assay [2], in assay [3], in assay [4], in assay [5] and in assay [6] was more than 100 µM throughout. The TGI in assay [7], in [8], in assay [9] and in assay [10] was more than 100 µM each time.

With `COc1ccc(/[N+]([O-])=C/c2ccccc2OC(=S)S)cc1`, the TGI in [1] was 97.1 µM; in [2], more than 100 µM; in assay [3], more than 100 µM; in [4], 63.4 µM; in assay [5] it was 52.7 µM; in [6], more than 100 µM. Also, the TGI in assay [7], in [8] and in assay [10] was more than 100 µM each time.

For `CCc1n[nH]c(=O)n1-c1ccncc1`, the TGI in assay [1], in [2], in assay [3], in [4], in [5] and in assay [6] was more than 100 µM in each case. Moreover, the TGI in assay [7], in [9] and in [10] was more than 100 µM each time.
